In patent publication US4351949A, “Bicyclic prostaglandin analogs and method of synthesis” (Iowa State University Research Foundation, Inc., priority 1981, dated 1982):
Converted amounts (≈) assume the structure as drawn. Read-outs that look alike come from different tables or passages of the source.

Experiments:
[1] = tested on: arachidonic acid induced platelet aggregation; experiment: in vitro arachidonic acid induced blood platelet aggregation; format: cell-based
Procedure: The compounds of Examples 1 through 11 were tested against arachidonic acid induced platelet aggregation.

[2] = tested on: experimental thrombosis; experiment: in vivo biolaser model of experimental thrombosis (rabbit ear chamber); conditions: combined with anagrelide at a lower than threshold level
Description: These compounds were studied in vivo in an animal model for experimental thrombosis. The use of this model is described in detail in the reprint, Use of the Biolaser in the Evaluation of Anti-Thrombotic Agents, J. S. Fleming et al. "Platelets and Thrombosis", eds. S. Sherry and A. Scriabrine, University Park Press, 1974, Baltimore, which is incorporated herein by reference.
In brief, a micro-injury is created by a laser beam focused through a microscope onto the endothelium surface of a small blood vessel in a surgically implanted ear chamber of a rabbit. The injury induces the rapid formation of a platelet thrombis which can be measured. […] Prostacyclin is active in the biolaser model when infused intraveneously. The results of these tests preliminarily indicate that there is a super additive interaction between anagrelide and the compounds of this invention. […] To date, no other compounds have undergone significant in vivo analysis in the rabbit ear test.

[3] = tested on: experimental thrombosis; conditions: cited from earlier work; for inhibition of laser-induced thrombosis by potent inhibitors of platelet aggregation: rabbit ear chamber, general statement on the model
[4] = concentration of agent necessary to reduce by 50% the in vitro blood platelet aggregation caused by addition of arachidonic acid, read-out: EC 50 vs Arachidonic Acid
[5] = Platelet, for comparison, vs arachidonic acid, read-out: EC 50 of comparison compounds

| EC50 [1, 4] | Structure (SMILES) | further results |
| --- | --- | --- |
| 4 µg/mL (≈ 13.1 µM) | CCCCCC(O)C#CC1C2CCC(C2)C1C/C=C/C(=O)O (stereo not drawn) [Example 5] | – |
| 0.07 µg/mL (≈ 0.194 µM) | CCCCCC(O)C#CC1C2CCC(C2)C1C/C=C/CCCC(=O)OC (stereo not drawn) [Example 2] | reduction in thrombosis in combination with anagrelide [2]: substantial reduction in thrombosis |
| – | CCCCC[C@H](O)/C=C/[C@H]1[C@H](O)CC(=O)[C@@H]1CCCCCCC(=O)O [PGE1, reference compound] | EC50 [1, 5]: 0.018 µg/mL (≈ 0.0508 µM) |
| 0.4 µg/mL (≈ 0.96 µM) | CCCCCC(O)C#CC1C2CCC(C2)C1C/C=C/CCCCCCCC(=O)OC (stereo not drawn) [Example 4] | – |
| 3.6 µg/mL (≈ 10 µM) | CCCCCC(O)C#CC1C2C=CC(C2)C1C/C=C/CCCC(=O)OC (stereo not drawn) [Example 7] | – |
| – | CCCCC[C@H](O)/C=C/[C@@H]1[C@H]2C/C(=C/CCCC(=O)O)O[C@H]2C[C@H]1O [prostacyclin] | EC50 [1, 5]: 0.004 µg/mL (≈ 0.0113 µM); activity in the biolaser model ([3]; infused intravenously, rabbit): active; inhibition of laser-induced thrombosis by potent inhibitors of platelet aggregation [3]: significant inhibition |
| – | O=C1CN2Cc3c(ccc(Cl)c3Cl)N=C2N1 [anagrelide] | inhibition of laser-induced thrombosis by potent inhibitors of platelet aggregation [3]: significant inhibition |
| 0.045 µg/mL (≈ 0.13 µM) | CCCCCC(O)C#CC1C2CCC(C2)C1C/C=C/CCCC(=O)O (stereo not drawn) [Example 1] | – |
| 3.6 µg/mL (≈ 10.8 µM) | CCCCCC(O)C#CC1C2CCC(C2)C1C/C=C/CCCCO (stereo not drawn) [Example 9] | – |
| 5.8 µg/mL (≈ 15.5 µM) | CCCCCC(O)C#CC1C2CCC(CC2)C1C/C=C/CCCC(=O)OC (stereo not drawn) [Example 8] | – |
| 8 µg/mL (≈ 25.1 µM) | CCCCCC(O)C#CC1C2CCC(C2)C1C/C=C/C(=O)OC (stereo not drawn) [Example 6] | – |
| 1 µg/mL (≈ 2.48 µM) | CCCCCC(O)C#CC1C2CCC(C2)C1C/C=C/CCCCCCCC(=O)O (stereo not drawn) [Example 3] | – |
